From ChEMBL document CHEMBL1201862, “PubChem BioAssay data set” (2004)
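Test compounds were applied to cells in 96-well plates for 48 hours at 5 doses. GI50: concentration for 50% inhibition of growth.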 Active and inactive are the calls of the source. Cut-off read from the data, not from the text of the source: active = GI50 up to about 1.1 µM and inactive = higher.

Columns and labels:
Experiment in all cases: NCI anticancer screen, dose series, 48 h
SNB-19 = system: SNB-19
NCI-H226 = system: NCI-H226
SNB-75 = system: SNB-75
HT-29 = system: HT-29
HCC 2998 = system: HCC 2998
SF-268 = system: SF-268
RPMI-8226 = system: RPMI-8226
MOLT-4 = system: MOLT-4
RXF 631 = system: RXF 631
HCT-116 = system: HCT-116
OVCAR-3 = system: OVCAR-3
NCI-H522 = system: NCI-H522
M19-MEL = system: M19-MEL
DMS-273 = system: DMS-273
UACC-257 = system: UACC-257
SF-295 = system: SF-295
DMS-114 = system: DMS-114
OVCAR-8 = system: OVCAR-8
OVCAR-5 = system: OVCAR-5
EKVX = system: EKVX
OVCAR-4 = system: OVCAR-4
LOX IMVI = system: LOX IMVI
HOP-18 = system: HOP-18
HL-60 = system: HL-60
M14 = system: M14
RXF 393 = system: RXF 393
HCT-15 = system: HCT-15
SK-OV-3 = system: SK-OV-3
A549 = system: A549
HOP-62 = system: HOP-62
TK-10 = system: TK-10
SW-620 = system: SW-620
ACHN = system: ACHN
NCI-H23 = system: NCI-H23
HOP-92 = system: HOP-92
CAKI-1 = system: CAKI-1
SN12C = system: SN12C
SK-MEL-5 = system: SK-MEL-5
A498 = system: A498
COLO 205 = system: COLO 205
NCI-H460 = system: NCI-H460
CCRF-CEM = system: CCRF-CEM
UO-31 = system: UO-31
U-251 = system: U-251
SNB-78 = system: SNB-78
K562 = system: K562
Malme-3M = system: Malme-3M
DLD-1 = system: DLD-1
IGROV-1 = system: IGROV-1
SK-MEL-28 = system: SK-MEL-28
KM12 = system: KM12
SF-539 = system: SF-539
786-0 = system: 786-0
KM-20L2 = system: KM-20L2
UACC-62 = system: UACC-62
LXFL 529 = system: LXFL 529
SK-MEL-2 = system: SK-MEL-2
SR = system: SR

O=C1Nc2cc(Cl)ccc2N=CC1NC(=O)C(c1ccccc1)c1ccccc1Cl (configuration not stated)
GI50 (SNB-19): > 100 µM (inactive) | GI50 (NCI-H226): > 100 µM (inactive) | GI50 (SNB-75): > 100 µM (inactive) | GI50 (HT-29): > 100 µM (inactive) | GI50 (HCC 2998): > 100 µM (inactive) | GI50 (SF-268): > 100 µM (inactive) | GI50 (RPMI-8226): > 100 µM (inactive) | GI50 (MOLT-4): > 100 µM (inactive) | GI50 (RXF 631): > 100 µM (inactive) | GI50 (HCT-116): > 100 µM (inactive) | GI50 (OVCAR-3): > 100 µM (inactive) | GI50 (NCI-H522): > 100 µM (inactive) | GI50 (M19-MEL): > 100 µM (inactive) | GI50 (DMS-273): > 100 µM (inactive) | GI50 (UACC-257): > 100 µM (inactive) | GI50 (SF-295): > 100 µM (inactive) | GI50 (DMS-114): > 100 µM (inactive) | GI50 (OVCAR-8): > 100 µM (inactive) | GI50 (OVCAR-5): > 100 µM (inactive) | GI50 (EKVX): > 100 µM (inactive) | GI50 (OVCAR-4): > 100 µM (inactive) | GI50 (LOX IMVI): > 100 µM (inactive) | GI50 (HOP-18): 27.5 µM (inactive) | GI50 (HL-60): > 100 µM (inactive) | GI50 (M14): > 100 µM (inactive) | GI50 (RXF 393): > 100 µM (inactive) | GI50 (HCT-15): > 100 µM | GI50 (SK-OV-3): > 100 µM (inactive) | GI50 (A549): > 100 µM (inactive) | GI50 (HOP-62): > 100 µM (inactive) | GI50 (TK-10): > 100 µM (inactive) | GI50 (SW-620): > 100 µM (inactive) | GI50 (ACHN): > 100 µM (inactive) | GI50 (NCI-H23): > 100 µM (inactive) | GI50 (HOP-92): > 100 µM (inactive) | GI50 (CAKI-1): > 100 µM (inactive) | GI50 (SN12C): > 100 µM (inactive) | GI50 (SK-MEL-5): > 100 µM (inactive) | GI50 (A498): > 100 µM (inactive) | GI50 (COLO 205): > 100 µM (inactive) | GI50 (NCI-H460): 57.9 µM (inactive) | GI50 (CCRF-CEM): > 100 µM (inactive) | GI50 (UO-31): > 100 µM (inactive) | GI50 (U-251): > 100 µM (inactive) | GI50 (SNB-78): > 100 µM (inactive) | GI50 (K562): > 100 µM (inactive) | GI50 (Malme-3M): > 100 µM (inactive) | GI50 (DLD-1): > 100 µM (inactive) | GI50 (IGROV-1): > 100 µM (inactive) | GI50 (SK-MEL-28): > 100 µM (inactive) | GI50 (KM12): > 100 µM (inactive) | GI50 (SF-539): > 100 µM (inactive) | GI50 (786-0): > 100 µM (inactive) | GI50 (KM-20L2): > 100 µM (inactive) | GI50 (UACC-62): > 100 µM (inactive) | GI50 (LXFL 529): > 100 µM (inactive) | GI50 (SK-MEL-2): > 100 µM (inactive)

CC(=O)SC(SC(C)=O)SC(C)=O
GI50 (SNB-19): > 100 µM (inactive) | GI50 (NCI-H226): > 100 µM (inactive) | GI50 (SNB-75): 60.3 µM (inactive) | GI50 (HT-29): 24.7 µM (inactive) | GI50 (HCC 2998): > 100 µM (inactive) | GI50 (SF-268): > 100 µM (inactive) | GI50 (MOLT-4): 43.9 µM (inactive) | GI50 (RXF 631): > 100 µM (inactive) | GI50 (HCT-116): > 100 µM (inactive) | GI50 (OVCAR-3): 91 µM (inactive) | GI50 (NCI-H522): 20.7 µM (inactive) | GI50 (M19-MEL): > 100 µM (inactive) | GI50 (DMS-273): > 100 µM (inactive) | GI50 (UACC-257): 55 µM (inactive) | GI50 (DMS-114): 31.1 µM (inactive) | GI50 (OVCAR-8): > 100 µM (inactive) | GI50 (OVCAR-5): > 100 µM (inactive) | GI50 (EKVX): > 100 µM (inactive) | GI50 (OVCAR-4): > 100 µM (inactive) | GI50 (LOX IMVI): 58.5 µM (inactive) | GI50 (HOP-18): > 100 µM (inactive) | GI50 (HL-60): 51.3 µM (inactive) | GI50 (M14): > 100 µM (inactive) | GI50 (RXF 393): > 100 µM (inactive) | GI50 (HCT-15): 53.2 µM | GI50 (SK-OV-3): > 100 µM (inactive) | GI50 (A549): 37.2 µM (inactive) | GI50 (HOP-62): > 100 µM (inactive) | GI50 (TK-10): > 100 µM (inactive) | GI50 (SW-620): > 100 µM (inactive) | GI50 (ACHN): > 100 µM (inactive) | GI50 (NCI-H23): > 100 µM (inactive) | GI50 (SN12C): > 100 µM (inactive) | GI50 (SK-MEL-5): > 100 µM (inactive) | GI50 (A498): > 100 µM (inactive) | GI50 (COLO 205): 27.3 µM (inactive) | GI50 (NCI-H460): > 100 µM (inactive) | GI50 (CCRF-CEM): 22.5 µM (inactive) | GI50 (UO-31): > 100 µM (inactive) | GI50 (U-251): > 100 µM (inactive) | GI50 (SNB-78): > 100 µM (inactive) | GI50 (K562): 54.5 µM (inactive) | GI50 (Malme-3M): > 100 µM (inactive) | GI50 (DLD-1): > 100 µM (inactive) | GI50 (IGROV-1): > 100 µM (inactive) | GI50 (SK-MEL-28): > 100 µM (inactive) | GI50 (KM12): > 100 µM (inactive) | GI50 (SF-539): > 100 µM (inactive) | GI50 (786-0): > 100 µM (inactive) | GI50 (KM-20L2): > 100 µM (inactive) | GI50 (UACC-62): 84.1 µM (inactive) | GI50 (LXFL 529): 51.8 µM (inactive) | GI50 (SK-MEL-2): > 100 µM (inactive)

O=c1c2cccc3cccc(c4oc5c6cccc7cccc(c(=O)c5c14)c76)c32
GI50 (SNB-19): 11.6 µM (inactive) | GI50 (NCI-H226): 17 µM (inactive) | GI50 (SNB-75): 14 µM (inactive) | GI50 (HT-29): 13.8 µM (inactive) | GI50 (HCC 2998): 27.2 µM (inactive) | GI50 (SF-268): 13 µM (inactive) | GI50 (RPMI-8226): 12.8 µM (inactive) | GI50 (MOLT-4): 12.5 µM (inactive) | GI50 (RXF 631): 11.4 µM (inactive) | GI50 (HCT-116): 2.25 µM (inactive) | GI50 (OVCAR-3): 12 µM (inactive) | GI50 (NCI-H522): 5.4 µM (inactive) | GI50 (M19-MEL): 12 µM (inactive) | GI50 (DMS-273): 12.8 µM (inactive) | GI50 (SR): 7.66 µM (inactive) | GI50 (UACC-257): 17.1 µM (inactive) | GI50 (SF-295): 17.9 µM (inactive) | GI50 (DMS-114): 12.5 µM (inactive) | GI50 (OVCAR-8): 11.1 µM (inactive) | GI50 (OVCAR-5): 27.2 µM (inactive) | GI50 (EKVX): 12.2 µM (inactive) | GI50 (LOX IMVI): 12.2 µM (inactive) | GI50 (HOP-18): 14.6 µM (inactive) | GI50 (HL-60): 9.18 µM (inactive) | GI50 (M14): 12.4 µM (inactive) | GI50 (RXF 393): 11.2 µM (inactive) | GI50 (HCT-15): 11.4 µM | GI50 (SK-OV-3): 28.9 µM (inactive) | GI50 (A549): 2.06 µM (inactive) | GI50 (HOP-62): > 100 µM (inactive) | GI50 (TK-10): 11.6 µM (inactive) | GI50 (SW-620): 11.8 µM (inactive) | GI50 (ACHN): 11.6 µM (inactive) | GI50 (NCI-H23): 13.2 µM (inactive) | GI50 (HOP-92): 8.22 µM (inactive) | GI50 (CAKI-1): 15.8 µM (inactive) | GI50 (SN12C): 13.8 µM (inactive) | GI50 (SK-MEL-5): 15.2 µM (inactive) | GI50 (A498): > 100 µM (inactive) | GI50 (COLO 205): 10.9 µM (inactive) | GI50 (NCI-H460): 12.5 µM (inactive) | GI50 (CCRF-CEM): 5.47 µM (inactive) | GI50 (UO-31): 13.5 µM (inactive) | GI50 (U-251): 12.7 µM (inactive) | GI50 (SNB-78): 13.7 µM (inactive) | GI50 (K562): > 10 µM (inactive) | GI50 (Malme-3M): 12.5 µM (inactive) | GI50 (DLD-1): 15.1 µM (inactive) | GI50 (IGROV-1): 16.9 µM (inactive) | GI50 (SK-MEL-28): 13.3 µM (inactive) | GI50 (KM12): 13.8 µM (inactive) | GI50 (SF-539): 15.8 µM (inactive) | GI50 (786-0): 11.2 µM (inactive) | GI50 (KM-20L2): 15.4 µM (inactive) | GI50 (UACC-62): 12.8 µM (inactive) | GI50 (LXFL 529): 11.1 µM (inactive) | GI50 (SK-MEL-2): 15.7 µM (inactive)
